For series [1] the following is noted: prior art; cited from earlier work.
The conditions of series [2]: prior art; cited from earlier work. This is another data set of the same source.
For series [3], the system named is isolated heart muscle. The series is described as follows: cardiostimulation in isolated heart muscle. The source says: Differences in toxicity, i.e. the tolerance to increasingly-greater dosage levels before the onset of arrhythmia, exist among the various steroid glycosides.
In series [4] the target is cardiac glycoside (CG) binding site (digitalis receptor) of heart muscle. The series is described as follows: 3H-ouabain radioligand binding assay (RBA). Details: species or system dog. The conditions noted are these: for IC50: read-out: binding / displacement potency in the 3H-ouabain RBA (IC50); for binding activity in the RBA, in words: qualitative statement; for receptor potency relative to the aglycone: glucoside versus aglycone. As to the method:
An extensive study has been conducted by the inventors with respect to a wide series of steroids of the pregnane and androstane type. The potencies of these steroids were determined in a ^3 H-ouabain radioligand binding assay (RBA). Past experience has indicated to the inventors that the potency of the steroids to displace the labelled cardiac glycoside (i.e. ouabain) in the assay parallel their biological activity, that is their cardiac glycoside-like activity in the ability to inhibit Na/K-ATPase and elicit characteristic cellular response.
Binding studies were carried out in a ^3 H-ouabain radioligand binding assay (RBA) generally as described by Chow et al in Br. J. Pharmac. (1979), 67, 345 to 352. The results obtained are set forth in the Examples below:
A number of progesterone derivatives, having a 17α-acetoxy group and various functions at C-3 and C-6, interact at the cardiac glycoside (CG) binding site, as measured by the RBA with membranes from dog myocardium. Experimental values are given in the Table of FIG. 4 and structures in FIG. 3. The inventors have carried out structure-activity studies concerned with modification of the A and B rings as they influence potency in the RBA. As may be seen from the data, some progesterone derivatives with 5α- or 5β-stereochemistry show receptor competing activity. Among the congeners, highest potency is associated with the presence of C-4 or C-4,6-unsaturation and a C-6 substituent (CH3, Cl, Br). The C-3 function may be carbonyl, 3β-hydroxy, 3β-acetoxy or β-D-glucoside when associated with C-4 or C-4,6 unsaturation. In compounds with other substituents that promote activity, C-6α-substitution with --CH3, --Cl or --Br strongly enhance activity, --F, --OCH3, carbonyl or the unsubstituted compound promotes weak binding, and --OC2 H5, --OAc, --OCOOCH3 or --OH eliminates binding activity. Receptor interaction with the double bond at C-4, but not C-5, appears to be particularly important for binding.

Series [5] is described as follows: intrarenal infusion: urine volume, sodium and potassium excretion. The series is classed as in vivo. The source says: The effects of an intrarenal infusion of ouabain and 14β-hydroxyprogesterone glucoside were compared. […] This marked natriuresis and absence of kaliuresis by the cardiotonic pregnane has practical clinical implications. […]
For series [6], the system named is canine ventricular trabeculae muscle. The series is described as follows: contractile (inotropic) response of canine ventricular trabeculae muscle.
In series [7] the test system is Na/K-ATPase. The note with it: prior art; cited from earlier work.
The conditions of series [8]: prior art; cited from earlier work. The source holds these as a separate data set.
The mark [9] stands for this setting: cardiac receptor of heart muscle, membranes from dog myocardium.
Where [10] appears, read: listed as β-D-glucoside of 14β-hydroxyprogesterone.

Where two headings read alike, the source gives them in different places.

In the case of `C[C@@H]1O[C@@H](O[C@H]2CC[C@@]3(C)[C@H](CC[C@@H]4[C@@H]3CC[C@]3(C)[C@@H]([C@@H](C)O)CC[C@]43N)C2)[C@H](O)[C@H](O)[C@H]1O` [3β-rhamnosyloxy-14β-amino-5β-pregnane-20β-ol], the “potency compared with the cardiac glycosides” value in series [1] is “as potent as the cardiac glycosides”. Besides, the “effect on cardiac contractility compared with digoxin” value in series [2] was “superior, in terms of tolerance to higher dosage”.
Regarding `CC(=O)[C@H]1CC[C@]2(O)[C@@H]3CC[C@@H]4CC(=O)CC[C@]4(C)[C@H]3CC[C@]12C` [compound 3], the cardiostimulation result in series [3] is given as “cardiostimulant”. The IC50 in series [4] (setting [9]) amounted to 60000 nM. In series [4], the “binding activity in the RBA, in words” value was “weaker than 14β-hydroxyprogesterone”.
As for `CC(=O)[C@H]1CC[C@]2(O)[C@@H]3CCC4=CC(=O)CC[C@]4(C)[C@H]3CC[C@]12C` [compound 6, 14β-hydroxyprogesterone], in series [3], the cardiostimulation result was “elicits cardiostimulation”. In addition, in series [4] (setting [9]), the IC50 was 10000 nM.
In the case of `CC(=O)[C@H]1CC[C@]2(O)[C@@H]3CCC4=C[C@@H](O[C@@H]5O[C@H](CO)[C@@H](O)[C@H](O)[C@H]5O)CC[C@]4(C)[C@H]3CC[C@]12C` [compound 8], the urine volume entry in series [5] is reported as “increased urine volume”. For the same compound, the potassium excretion entry in series [5] (listed as 14β-OHP-glu) is “no influence on potassium excretion”; in series [5] (setting [10]), “little effect on potassium excretion”. Moreover, the results for the sodium excretion result in series [5] (listed as 14β-OHP-glu) and in series [5] (setting [10]) were “increased sodium excretion significantly” and “increased sodium excretion”, respectively. Besides, the inotropic response result in series [6] (dose dependent) is recorded as “positive inotropic response”. Besides, in series [6] (during peak inotropic response and subsequent depression), the “after contractions on rapid electrical stimulation (digitalis-like toxic response)” value is recorded as “possible to elicit spontaneous after contraction(s)”. Besides, the “contractile response at high concentrations” value in series [6] (high concentrations) was “biphasic contractile response, an initial increase followed by a decrease”. Moreover, in series [4] (setting [9]), the IC50 is 1800 nM. Further, the “receptor potency relative to the aglycone” value is given as “about 10 times” in series [4] (listed as 14β-OHP-glu) and “approximately ten” in series [4] (setting [10]).
For the compound `CC(=O)O[C@]1(C(C)=O)CC[C@H]2[C@@H]3C=C(Cl)C4=CC(=O)CC[C@]4(C)[C@H]3CC[C@@]21C` [compound 20, 17α-acetoxy-6-chloropregna-4,6-diene-3,20-dione, reference compound], in series [7], the “affinity / potency at Na/K-ATPase” value is on record as “high affinity”. In addition, the “effect on cardiac contractility” value in series [8] was “cardiodepression or decreased contractility”. Moreover, the IC50 in series [4] (setting [9]) stood at 500 nM. The “potency in the RBA relative to ouabain” value in series [4] (fraction of the potency of ouabain) is 1/20.
On to `C[C@]12CCC(=O)C=C1C(Cl)=C[C@@H]1[C@@H]2CC[C@]2(C)C(=O)CC[C@@H]12` [compound 36, 6-chloroandrost-4,6-diene-3,17-diene], for which the “binding activity in the RBA, in words” value in series [4] was “most potent derivatives”.
Turning to `C[C@@H](O)[C@H]1CC[C@]2(O)[C@@H]3CC[C@@H]4C[C@@H](O[C@@H]5O[C@H](CO)[C@@H](O)[C@H](O)[C@H]5O)CC[C@]4(C)[C@H]3CC[C@]12C` [compound A], the IC50 in series [4] (setting [9]) was determined as 400 nM.
On to `C[C@@H]1O[C@@H](O[C@H]2C[C@@H](O)[C@]3(CO)[C@H]4[C@H](O)C[C@]5(C)[C@@H](C6=CC(=O)OC6)CC[C@]5(O)[C@@H]4CC[C@]3(O)C2)[C@H](O)[C@H](O)[C@H]1O` [ouabain, reference compound], for which, in series [5], the potassium excretion result is listed as “marked increase in potassium excretion”, the sodium excretion entry is reported as “little or no change in sodium excretion” and the urine volume result was “increased urine volume”. The IC50 in series [4] (values in nM) is 14 nM.
Regarding `CC(=O)[C@H]1CC[C@]2(O)[C@@H]3CCC4=C[C@@H](O[C@@H]5O[C@@H](C)[C@H](O)[C@@H](O)[C@H]5O)CC[C@]4(C)[C@H]3CC[C@]12C` [rhamnoside], in series [4] (setting [9]), the IC50 was 290 nM.
In the case of `C[C@@H]1O[C@@H](O[C@H]2CC[C@@]3(C)[C@H](CC[C@@H]4[C@@H]3CC[C@]3(C)[C@@H]([C@@H](C)O)CC[C@]43O)C2)[C@H](O)[C@H](O)[C@H]1O` [α-L-rhamnose derivative, 14,20β-Dihydroxy-3β-(α-L-rhamnopyranosyloxy)-5β,14β-pregnane], the IC50 in series [4] (values in nM) was 80 nM.
As for `CC(=O)O[C@]1(C(C)=O)CC[C@H]2[C@@H]3C[C@H](C)C4=C[C@@H](O[C@@H]5O[C@H](CO)[C@@H](O)[C@H](O)[C@H]5O)CC[C@]4(C)[C@H]3CC[C@@]21C` [β-D-glucoside, 17α-Acetoxy-6α-methyl-3-β-[β-D-(glucopyranosyl)oly]-pregn-4-en-20-one], in series [5], the potassium excretion result is given as “potassium sparing” and the sodium excretion entry is reported as “sodium excreting”. Moreover, the IC50 in series [4] (setting [9]) was determined as 3300 nM.

Values taken from patent US5144017A, “Compounds that bind to digitalis receptor” (University of Manitoba, priority 1988, dated 1992).
